Test results as given in patent publication US10351547B2, “Somatostatin modulators and uses thereof” (priority 2016, dated 2019).

biological target: human SSTR2 (Homo sapiens (Human), UniProt P30874); test: Human SSTR2 intracellular cAMP functional assay for agonists (HTRF); type: cell-based; conditions: not given
Procedure: Functional Assay for SSTR2 Agonists
General overview: All five SSTR subtypes are Gi coupled G-protein coupled receptors (GPCRs) that lead to decreases in intracellular cyclic AMP (cAMP) when activated by an agonist. […] Human SSTR2 intracellular cAMP assay is described below. The human SSTR1, 3, 4 and 5 assays follow the same protocol of SSTR2.
The cells are cultured at 37° C., 5% CO2 and 95% humidity. […] The cells are incubated for 20 minutes at 37° C. […] The cells are treated with 50 μL of lysis buffer (HRTF cAMP kit, Cisbio). […] The time-resolved fluorescent signal is read with a Tecan M1000Pro multiplate reader. The intracellular cAMP concentrations are calculated by regression to a standard curve and are plotted vs. the concentration of the compounds of the invention and the EC50 of the compounds are calculated using standard methods. All data manipulations are in GraphPad Prism v6.

Sequence of human SSTR2 (P30874 whole entry): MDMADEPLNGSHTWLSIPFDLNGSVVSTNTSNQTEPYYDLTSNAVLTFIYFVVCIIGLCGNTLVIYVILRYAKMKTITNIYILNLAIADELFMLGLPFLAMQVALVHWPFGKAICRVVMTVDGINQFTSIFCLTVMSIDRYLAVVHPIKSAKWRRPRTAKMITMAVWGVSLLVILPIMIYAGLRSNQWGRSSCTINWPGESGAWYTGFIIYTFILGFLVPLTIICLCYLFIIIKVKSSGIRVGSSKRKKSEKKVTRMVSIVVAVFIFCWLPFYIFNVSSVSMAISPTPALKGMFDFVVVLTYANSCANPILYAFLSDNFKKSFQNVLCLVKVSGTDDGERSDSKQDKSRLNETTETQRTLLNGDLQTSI

Question: Which EC50 does the source give for `NC(=O)c1cnc(N2CCC2)c(-c2ccc3ncc(-c4cc(F)cc(F)c4)c(N4CCC(N)CC4)c3c2)c1` [2-76, 5-[4-(4-aminopiperidin-1-yl)-3-(3,5-difluorophenyl)quinolin-6-yl]-6-(azetidin-1-yl)pyridine-3-carboxamide] here?
Answer: Its EC50 is 100 to 1000 nM.

Question: How did the EC50 turn out when `CONC(=O)Nc1ccc(-c2ccc3ncc(-c4cc(C)cc(F)c4)c(N4CCC(N)CC4)c3c2)cc1` [2-240, 1-{4-[4-(4-aminopiperidin-1-yl)-3-(3-fluoro-5-methylphenyl)quinolin-6-yl]phenyl}-3-methoxyurea] was run?
Answer: Its EC50 is 10 to 100 nM.

Question: For `NC1CCN(c2c(-c3cc(F)cc(F)c3)cnc3ccc(-c4cc(Cl)c5[nH]c(=O)[nH]c5c4)cc23)CC1` [2-141, 6-[4-(4-aminopiperidin-1-yl)-3-(3,5-difluorophenyl)quinolin-6-yl]-4-chloro-2,3-dihydro-1H-1,3-benzodiazol-2-one], which EC50 is on record?
Answer: The EC50 was 10 to 100 nM.

Question: How did the EC50 turn out when `CCN(CCO)CC1CN(c2c(-c3cc(C)cc(F)c3)cnc3ccc(-c4cc(F)cc(C#N)c4O)cc23)C1` [2-44, 3-[4-(3-{[ethyl(2-hydroxyethyl)amino]methyl}azetidin-1-yl)-3-(3-fluoro-5-methylphenyl)quinolin-6-yl]-5-fluoro-2-hydroxybenzonitrile] was run?
Answer: The EC50 was 100 to 1000 nM.

Question: With `Cc1cc(C)cc(-c2nnc3cc(Cl)c(Cl)cc3c2N2CCC(N)CC2)c1` [1-3, 1-[6,7-dichloro-3-(3,5-dimethylphenyl)cinnolin-4-yl]piperidin-4-amine] as the compound, how does the EC50 read?
Answer: The EC50 was 100 to 1000 nM.

Question: `COC(=O)[C@@H]1CN(c2c(-c3cc(F)cc(F)c3)cnc3ccc(-c4cccc(C#N)c4O)cc23)CC[C@H]1N` (relative stereo) [2-170, methyl (trans)-4-amino-1-[6-(3-cyano-2-hydroxyphenyl)-3-(3,5-difluorophenyl)quinolin-4-yl]piperidine-3-carboxylate] was tested. Which EC50 did it give?
Answer: The EC50 was 100 to 1000 nM.

Question: `Cc1cc(Cl)cc(-c2cnc3ccc(-c4cccc(C#N)c4O)cc3c2N2CC(CN)C2)c1` [2-13, 3-{4-[3-(aminomethyl)azetidin-1-yl]-3-(3-chloro-5-methylphenyl)quinolin-6-yl}-2-hydroxybenzonitrile] was tested. Which EC50 did it give?
Answer: Its EC50 is 10 to 100 nM.

Question: For `N#Cc1cc(F)cc(-c2ccc3ncc(-c4cc(F)cc(Cl)c4)c(N4CC(CN)C4)c3c2)c1O` [2-21, 3-{4-[3-(aminomethyl)azetidin-1-yl]-3-(3-chloro-5-fluorophenyl)quinolin-6-yl}-5-fluoro-2-hydroxybenzonitrile], which EC50 is on record?
Answer: Its EC50 is 10 to 100 nM.

Question: Which EC50 does the source give for `NC1CCN(c2c(-c3cc(Cl)cc(Cl)c3)cnc3ccccc23)CC1` [2-11, 1-[3-(3,5-dichlorophenyl)quinolin-4-yl]piperidin-4-amine] here?
Answer: The EC50 was 10 to 100 nM.

Question: How did the EC50 turn out when `Cc1cc(F)cc(-c2nnc3cc(Cl)c(-c4cccc5[nH]c(=O)[nH]c45)cc3c2N2CCC(N)CC2)c1` [1-9, 4-[4-(4-aminopiperidin-1-yl)-7-chloro-3-(3-fluoro-5-methylphenyl)cinnolin-6-yl]-2,3-dihydro-1H-1,3-benzodiazol-2-one] was run?
Answer: Its EC50 is 10 to 100 nM.

same assay, conditions: CHO-K1 cells stably expressing human SSTR2; NKH477-stimulated cAMP; read-out: EC50 (inhibition of cAMP activities via human SST2R)

Question: `CONC(=O)Nc1nn(C)cc1-c1ccc2ncc(-c3cc(C)cc(F)c3)c(N3CCC(N)CC3)c2c1` [2-212, 1-{4-[4-(4-aminopiperidin-1-yl)-3-(3-fluoro-5-methylphenyl)quinolin-6-yl]-1-methyl-1H-pyrazol-3-yl}-3-methoxyurea] was tested. Which EC50 did it give?
Answer: Its EC50 is under 10 nM.

Question: For `COC(=O)Nc1c(F)cccc1-c1ccc2ncc(-c3cc(C)cc(F)c3)c(N3CCC(N)CC3)c2c1` [2-209, methyl N-{2-[4-(4-aminopiperidin-1-yl)-3-(3-fluoro-5-methylphenyl)quinolin-6-yl]-6-fluorophenyl}carbamate], which EC50 is on record?
Answer: The EC50 was under 10 nM.

Question: Which EC50 does the source give for `Cc1ccc(F)c(C=NO)c1-c1ccc2ncc(-c3cc(F)cc(F)c3)c(N3CCC(N)CC3)c2c1` [2-202, 1-[3-(3,5-difluorophenyl)-6-{3-fluoro-2-[(hydroxyimino)methyl]-6-methylphenyl}quinolin-4-yl]piperidin-4-amine] here?
Answer: Its EC50 is under 10 nM.

Question: Which EC50 does the source give for `Cn1cc(-c2ccc3ncc(-c4cc(F)cc(F)c4)c(N4CC[C@H]5NCCO[C@@H]5C4)c3c2)c(N)n1` (relative stereo) [2-245, 4-{4-[trans-octahydro-1H-pyrido[3,4-b]morpholin-6-yl]-3-(3,5-difluorophenyl)quinolin-6-yl}-1-methyl-1H-pyrazol-3-amine] here?
Answer: Its EC50 is under 10 nM.

Question: `COCCOc1c(C#N)cccc1-c1ccc2ncc(-c3cc(C)cc(F)c3)c(N3CC[C@@H](N)[C@@H](O)C3)c2c1` (racemic) [2-224, 3-{4-[cis-4-amino-3-hydroxypiperidin-1-yl]-3-(3-fluoro-5-methylphenyl)quinolin-6-yl}-2-(2-methoxyethoxy)benzonitrile] was tested. Which EC50 did it give?
Answer: The EC50 was under 10 nM.

Question: How did the EC50 turn out when `Cc1cc(F)cc(-c2cnc3ccc(-c4cc(F)cc(F)c4NC(=O)NOC(C)C)cc3c2N2CCC(N)CC2)c1` [2-216, 1-{2-[4-(4-aminopiperidin-1-yl)-3-(3-fluoro-5-methylphenyl)quinolin-6-yl]-4,6-difluorophenyl}-3-(propan-2-yloxy)urea] was run?
Answer: The EC50 was under 10 nM.

Question: For `CON(C)C(=O)Nc1c(C#N)cc(F)c(F)c1-c1ccc2ncc(-c3cc(F)cc(F)c3)c(N3CCC(N)CC3)c2c1` [2-191, 1-{2-[4-(4-aminopiperidin-1-yl)-3-(3,5-difluorophenyl)quinolin-6-yl]-6-cyano-3,4-difluorophenyl}-3-methoxy-3-methylurea], which EC50 is on record?
Answer: The EC50 was under 10 nM.

Question: For `COC(=O)Nc1c(F)cc(F)cc1-c1ccc2ncc(-c3cc(F)cc(F)c3)c(N3CCC(N)CC3)c2c1` [2-83, methyl N-{2-[4-(4-aminopiperidin-1-yl)-3-(3,5-difluorophenyl)quinolin-6-yl]-4,6-difluorophenyl}carbamate], which EC50 is on record?
Answer: The EC50 was under 10 nM.

Question: Which EC50 does the source give for `NCC1CN(c2c(-c3cc(Cl)cc(Cl)c3)nnc3ccc(-c4cc(F)cc(C(N)=O)c4)cc23)C1` [1-34, 3-{4-[3-(aminomethyl)azetidin-1-yl]-3-(3,5-dichlorophenyl)cinnolin-6-yl}-5-fluorobenzamide] here?
Answer: The EC50 was under 10 nM.

Question: How did the EC50 turn out when `COCOc1c(C#N)cc(F)cc1-c1ccc2ncc(-c3cc(C)cc(F)c3)c(N3CC(CNCCCO)C3)c2c1` [2-53, 5-fluoro-3-[3-(3-fluoro-5-methylphenyl)-4-(3-{[(3-hydroxypropyl)amino]methyl}azetidin-1-yl)quinolin-6-yl]-2-(methoxymethoxy)benzonitrile] was run?
Answer: The EC50 was under 10 nM.

Question: How did the EC50 turn out when `COCCOc1c(C#N)cc(F)cc1-c1ccc2ncc(-c3cc(C)cc(F)c3)c(N3CC[C@H](N)[C@H](O)C3)c2c1` (relative stereo) [2-220, cis-3-{4-[4-amino-3-hydroxypiperidin-1-yl]-3-(3-fluoro-5-methylphenyl)quinolin-6-yl}-5-fluoro-2-(2-methoxyethoxy)benzonitrile] was run?
Answer: Its EC50 is under 10 nM.

Question: With `Cc1cc(F)cc(-c2cnc3ccc(-c4cc(F)cc(C#N)c4O)cc3c2N2CC(CN3CCCC3)C2)c1` [2-30, 5-fluoro-3-[3-(3-fluoro-5-methyl-phenyl)-4-(3-pyrrolidin-1-ylmethyl-azetidin-1-yl)-quinolin-6-yl]-2-hydroxy-benzonitrile] as the compound, how does the EC50 read?
Answer: The EC50 was under 10 nM.

Question: How did the EC50 turn out when `O=c1[nH]c2cc(-c3ccc4ncc(-c5cc(F)cc(F)c5)c(N5CC[C@H]6NCCO[C@@H]6C5)c4n3)cc(F)c2[nH]1` (relative stereo) [3-10, 6-{8-[trans-octahydro-1H-pyrido[3,4-b]morpholin-6-yl]-7-(3,5-difluorophenyl)-1,5-naphthyridin-2-yl}-4-fluoro-2,3-dihydro-1H-1,3-benzodiazol-2-one] was run?
Answer: The EC50 was under 10 nM.

Question: For `N#Cc1cccc(-c2ccc3ncc(-c4cc(F)cc(F)c4)c(N4CCC(N)CC4)c3c2)c1O` [2-2, 3-[4-(4-amino-piperidin-1-yl)-3-(3,5-difluoro-phenyl)-quinolin-6-yl]-2-hydroxy-benzonitrile], which EC50 is on record?
Answer: Its EC50 is under 10 nM.

Question: Which EC50 does the source give for `CON=Cc1cccc(-c2ccc3ncc(-c4cc(C)cc(F)c4)c(N4CC[C@H]5NCCO[C@@H]5C4)c3c2)c1O` (relative stereo) [2-221, 2-{4-[trans-octahydro-1H-pyrido[3,4-b]morpholin-6-yl]-3-(3-fluoro-5-methylphenyl)quinolin-6-yl}-6-[(methoxyimino)methyl]phenol] here?
Answer: Its EC50 is under 10 nM.

Question: How did the EC50 turn out when `Nc1c(Cl)ccnc1-c1ccc2ncc(-c3cc(F)cc(F)c3)c(N3CC[C@H]4NCCO[C@@H]4C3)c2c1` (relative stereo) [2-275, 2-{4-[trans-octahydro-1H-pyrido[3,4-b]morpholin-6-yl]-3-(3,5-difluorophenyl)quinolin-6-yl}-4-chloropyridin-3-amine] was run?
Answer: The EC50 was under 10 nM.

Question: `Cc1cc(Cl)cc(-c2nnc3ccc(-c4cccc(C#N)c4O)cc3c2N2CCC(N)CC2)c1` [1-18, 3-[4-(4-aminopiperidin-1-yl)-3-(3-chloro-5-methylphenyl)cinnolin-6-yl]-2-hydroxybenzonitrile] was tested. Which EC50 did it give?
Answer: The EC50 was under 10 nM.

Question: `N#Cc1cccc(-c2ccc3ncc(-c4cc(F)cc(F)c4)c(N4CCC(N)CC4)c3c2)c1OCCO` [2-65, 3-[4-(4-aminopiperidin-1-yl)-3-(3,5-difluorophenyl)quinolin-6-yl]-2-(2-hydroxyethoxy)benzonitrile] was tested. Which EC50 did it give?
Answer: The EC50 was under 10 nM.

Question: With `Cc1cc(F)cc(-c2cnc3ccc(-c4cc(F)cc(C#N)c4O)cc3c2N2CC(CNCCO)C2)c1` [2-43, 5-fluoro-3-[3-(3-fluoro-5-methylphenyl)-4-(3-{[(2-hydroxyethyl)amino]methyl}azetidin-1-yl)quinolin-6-yl]-2-hydroxybenzonitrile] as the compound, how does the EC50 read?
Answer: Its EC50 is under 10 nM.

Question: `Cc1cc(F)cc(-c2nnc3cc(Cl)c(-c4cc(F)cc(C(N)=O)c4)cc3c2N2CCC(NCCF)CC2)c1` [1-25, 3-[7-chloro-3-(3-fluoro-5-methylphenyl)-4-{4-[(2-fluoroethyl)amino]piperidin-1-yl}cinnolin-6-yl]-5-fluorobenzamide] was tested. Which EC50 did it give?
Answer: The EC50 was under 10 nM.

Question: How did the EC50 turn out when `Cc1cc(F)cc(-c2cnc3ccc(-c4cn(C)nc4N)cc3c2N2CCC(N)CC2)c1` [2-211, 1-[6-(3-amino-1-methyl-1H-pyrazol-4-yl)-3-(3-fluoro-5-methylphenyl)quinolin-4-yl]piperidin-4-amine] was run?
Answer: Its EC50 is under 10 nM.
